How the values were obtained:
Phytophtora infectans = assay: Test of fungicidal action (fungal growth inhibition vs. untreated control; ED50 and Wirkungsgrad); format: cell-based
Description: Dazu können z.B. in die Kavitäten von Mikrotiterplatten eine Lösung des zu prüfenden Wirkstoffs pipettiert werden. Nachdem das Lösungsmittel abgedampft war, wird zu jeder Kavität Medium hinzugefügt. Das Medium wird vorher mit einer geeigneten Konzentration von Sporen bzw. Mycel des zu prüfenden Pilzes versetzt. Die resultierenden Konzentrationen des Wirkstoffes betragen z.B. 0,1, 1, 10 und 100 ppm.
Die Platten werden anschließend auf einem Schüttler bei einer Temperatur von 22°C inkubiert, bis in der unbehandelten Kontrolle ein ausreichendes Wachstum feststellbar ist.
Die Auswertung erfolgt dann photometrisch bei einer Wellenlänge von 620 nm. Aus den Messdaten der verschiedenen Konzentrationen kann die Wirkstoffdosis bestimmt werden, die zu einer 50 %igen Hemmung des Pilzwachstums gegenüber der unbehandelten Kontrolle führt (ED50).
Ein anderes Verfahren zur Prüfung der fungiziden Wirkung beruht darauf, die protektive Wirkung der zu testenden Verbindung an einer Pflanze zu testen. Dazu wird die Pflanze mit einer Lösung des zu prüfenden Wirkstoffs besprüht und anschließend mit einer Lösung von Pilzssporen inokuliert und über mehrere Tage hinweg beobachtet. Es kann dann im Vergleich zu einer Pflanze, die nicht vorab mit einer Wirkstofflösung behandelt wurde, festgestellt werden, ob der zu prüfende Wirkstoff den Befall bzw. die Ausbreitung des Pilzes verhindert oder mindert.
Auch hier kann die Wirkstoffkonzentration bestimmt werden, die zu einer 50 %igen Hemmung des Pilzwachstums gegenüber der unbehandelten Kontrolle führt (ED50).
Weiterhin kann als Größe zur Beurteilung einer fungiziden Wirkung der Wirkungsgrad herangezogen werden, wobei 0 % für einen Wirkungsgrad steht, der demjenigen der Kontrolle entspricht, während ein Wirkungsgrad von 100 % bedeutet, daß kein Befall beobachtet wird.
In die Kavitäten von Mikrotiterplatten wurde eine methanolische Lösung des anhand eines erfindungsgemäßen Verfahrens identifizierten Wirkstoffs (Tab. I, Bsp. 2), versetzt mit einem Emulgator, pipettiert. […]

Phosphomannomutase = biological target: T1, Phosphomannomutase (Saccharomyces cerevisiae, UniProt P07283); assay: Phosphomannomutase inhibition test, coupled fluorescence assay (NADPH) in 384-well MTP; format: biochemical; conditions: negative decadic logarithm of the molar IC50 (50 % inhibition of the enzyme)
T1 construct: made in house; host or cells: E. coli BL21 (DE3), plasmid pSec53 (pGEX-4T-1)
T1 sequence (P07283 1-254): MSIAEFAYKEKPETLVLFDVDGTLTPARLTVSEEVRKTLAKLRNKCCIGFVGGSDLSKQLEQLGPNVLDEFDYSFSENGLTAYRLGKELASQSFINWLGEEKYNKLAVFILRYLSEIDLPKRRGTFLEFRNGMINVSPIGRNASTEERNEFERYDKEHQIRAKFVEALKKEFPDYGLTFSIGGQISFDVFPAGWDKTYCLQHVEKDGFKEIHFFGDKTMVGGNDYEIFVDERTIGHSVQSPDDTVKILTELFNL
Description: Die Messung kann auch in für HTS- oder UHTS-Assays gängigeren Formaten erfolgen, z.B. in Mikrotiterplatten, in denen z.B. ein Gesamtvolumen von 5 bis 50 µl pro Ansatz bzw. pro Well vorgelegt wird und die einzelnen Komponenten in einer der vorstehend angegebenen Endkonzentrationen vorliegen (vgl. Beispiel 2). Dabei wird die zu testende, potentiell die Aktivität des Enzyms inhibierende oder aktivierende Verbindung (Kandidatenmolekül) z.B. in einer geeigneten Konzentration im oben angegebenen Testpuffer enthaltend D-Mannose-1-phosphat vorgelegt. Dann wird das erfindungsgemäße Polypeptid in oben genanntem Testpuffer, enthaltend NADP^+, Glucose und die für den gekoppelten Assay notwendigen Hilfsenzyme Phosphoglucose Isomerase und Glucose-6-phosphat Dehydrogenase zugegeben und die Reaktion damit gestartet. Der Ansatz wird dann z.B. bis zu 2 oder 3 Stunden bei einer geeigneten Temperatur inkubiert und die Fluoreszenzzunahme bei einer Anregungswellenlänge von 360 nm und einer Emissionswellenlänge von 460 nm gemessen.
Eine weitere Messung erfolgt in einem entsprechenden Ansatz, jedoch ohne Zugabe eines Kandidatenmoleküls und ohne Zugabe eines erfindungsgemäßen Polypeptids (Negativkontrolle). Eine weitere Messung erfolgt wiederum bei Abwesenheit eines Kandidatenmoleküls, jedoch bei Anwesenheit des erfindungsgemäßen Polypeptids (Positivkontrolle). […]

C[n+]1ccc(/C=C/c2ccc(N(c3ccc(/C=C/c4cc[n+](C)cc4)cc3)c3ccc(N(c4ccc(/C=C/c5cc[n+](C)cc5)cc4)c4ccc(/C=C/c5cc[n+](C)cc5)cc4)cc3)cc2)cc1 [Beispiel 2]
ED50 (Phytophtora infectans; Phytophtora infectans, 50 % inhibition of fungal growth vs. untreated control): 500 ppm
WG (Phytophtora infectans; Phytophtora infectans, Wirkungsgrad: 0 % = like control, 100 % = no infestation): 33%
fungizide Wirkung (Phytophtora infectans; at the application rate given in Tabelle II): deutlich fungizide Wirkung
pI50 (Phosphomannomutase): 4,9

Source: patent publication EP1374681A1, “Process for identifying fungicidally active compounds” (Bayer CropScience AG, priority 2002, dated 2004)
